The assay deals with Amine oxidase [flavin-containing] A (Rattus norvegicus) (UniProt P21396). Nature of the assay: Inhibition of MAO-A activity.

The structures appear in SMILES notation.

Amine oxidase [flavin-containing] A (Rattus norvegicus), sequence (P21396 whole entry, looked up): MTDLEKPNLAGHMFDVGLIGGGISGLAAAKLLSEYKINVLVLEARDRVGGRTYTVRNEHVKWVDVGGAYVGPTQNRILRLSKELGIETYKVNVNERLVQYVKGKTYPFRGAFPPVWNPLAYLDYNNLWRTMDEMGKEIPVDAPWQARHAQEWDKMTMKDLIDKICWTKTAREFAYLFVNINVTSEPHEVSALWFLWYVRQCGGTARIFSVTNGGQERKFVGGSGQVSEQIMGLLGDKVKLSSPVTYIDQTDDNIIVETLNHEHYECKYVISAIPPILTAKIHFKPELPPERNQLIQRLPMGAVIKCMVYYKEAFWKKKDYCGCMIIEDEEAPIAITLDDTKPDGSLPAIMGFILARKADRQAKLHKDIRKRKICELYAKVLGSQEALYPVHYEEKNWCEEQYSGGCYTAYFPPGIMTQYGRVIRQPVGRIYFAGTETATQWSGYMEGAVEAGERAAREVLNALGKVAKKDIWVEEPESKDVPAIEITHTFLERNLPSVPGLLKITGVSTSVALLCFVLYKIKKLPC

`COc1cc(OC2CCCCC2=O)c2c(C)cc(=O)oc2c1` (stereo not given): the IC50 is more than 200 µM.
For `COc1c(OC2CCCCC2=O)ccc2c(C)cc(=O)oc12` (stereo not given) the value was 11.1 µM.
As to `COc1c(OCC(C)=O)ccc2cc(NC(C)=O)c(=O)oc12`, the IC50 is 6.43 µM.
For `Cc1cc(=O)oc2cc3oc4ccccc4c3cc12` the value was 7.24 µM.
In the case of `Cc1coc2cc3oc(=O)c(NC(=O)CN)cc3cc12` it was 12.3 µM; in that of `Cc1cc(=O)oc2cc(OC3CCCCC3=O)ccc12` (stereo not given), 43 µM.
For `CCN(CC)CCCOc1c2occc2cc2ccc(=O)oc12` the value was more than 200 µM; for `Cc1cc(=O)oc2cc3oc4c(c3cc12)CCCC4`, 65.2 µM; for `COc1cc(OC2CCCCC2=O)cc2oc(=O)cc(C)c12` (stereo not given), 21.4 µM.
Turning to `COc1c2oc(=O)c(N)cc2cc2c(C)coc12`, 21.7 µM corresponded to half-maximal inhibition (IC50).
In turn, `Cc1cc(=O)oc2cc(OC3CCCC3=O)ccc12` (stereo not given) had an IC50 of 0.04 µM.
For `NCCCOc1c2occc2cc2ccc(=O)oc12` the value was 2.51 µM.
In the case of `COc1c(O)ccc2cc(N)c(=O)oc12` it was more than 200 µM.
Regarding `Cc1cc(=O)oc2cc3oc4c(c3cc12)CCC4`, the IC50 turned out to be 11.9 µM.
In the case of `COc1c2occc2cc2ccc(=O)oc12` [METHOXSALEN], the IC50 was 85.1 µM.

By IC50 is commonly meant the concentration that gives 50% inhibition. A lower IC50 goes with greater potency in that assay.

The record behind these values is ChEMBL document CHEMBL1149408, “A QSAR model for in silico screening of MAO-A inhibitors. Prediction, synthesis, and biological assay of novel coumarins” (J Med Chem, 2006).
